{"source": "patent US20040171015A1", "about": "“Cyp450-specific dna probes and primers, and biological applications thereof” (priority 2003, published 2004)", "molecules": {"B1": {"name": "SEQ ID NO: 9: DNA molecule which hybridizes to CYP 2C19 (nucleic acid, listed as Homo sapiens)", "DNA": "TTTCACTATCTGTGATGCTTCTTCTGACCCGTCATCTCACATTTTCCCTTCCCCCAAGATCTAGTGAACATTCAGCCTCCATTAAAAAAGTTTCACTGTGCAAATATATCTGCTATTCCCCATACTCTATAATAGTTACATTGAGT"}, "B2": {"name": "SEQ ID NO: 8: DNA molecule which hybridizes to CYP 2C9 (nucleic acid, listed as Homo sapiens)", "DNA": "TTTGTGTATTATAATTCAAAGGCATTTCTTTTCTGCATGTTCTAAATAAAAAGCATTATTATTTGCTG", "modifications": "DNA, backbone and methylation of C not given here", "notes": "DNA molecule which hybridizes to CYP 2C9"}}, "key": {"[1]": {"system": "CYP 14 sub-family", "conditions": "human hepatocytes, 48 hours exposure; PB 1 microM, RIF 50 microM", "method": "RNA are then precipitated (1 hour at −20° C.) and centrifuged for 30 min at 4000 g and 4° C. The supernatant is removed and the pellets are re-suspended in 2.7 ml of solution D. 2.7 ml of isopropanol are then added to the suspension, and the RNA are again precipitated (1 hour at −20° C.) and centrifugated. The pellets are washed with 5.4 ml of 70% ethanol. After a final centrifugation and removal of the supernatant, the pellets are air-dried, and re-suspended in sterile water containing DEPC (DEPC 1/1000 in water, then sterilization). Total RNA contents are measured on a UV spectrophotometer. […]"}, "[2]": {"system": "CYP450", "conditions": "known inducers used for validation; cited from earlier work"}, "[3]": {"system": "CYP 3A4", "procedure": "(§1) 600 microliters of solution D (pH7; guanadium thiocyanate 4M; sodium citrate 25 mM; sarcosyl 0.5%; and 1.4 ml of beta-mercaptoethanol per 200 ml of solution D) have been added to each well so as to induce cell lysis. […] Are then successively added: 0.1 volume of sodium acetate (2M, pH4), 1 volume of water-saturated phenol and 0.2 volume of chloroform/isoamylalcohol (49/1, V/V). At each step, the suspension is vigorously vortexed, then left to cool on ice for 15-20 min, and centrifigated for 30 min at 4000 g and 4° C. An equal volume of isopropanol is added after removal of the aqueous phase.\n(§2) RNA are then precipitated (1 hour at −20° C.) and centrifuged for 30 min at 4000 g and 4° C. The supernatant is removed and the pellets are re-suspended in 2.7 ml of solution D. 2.7 ml of isopropanol are then added to the suspension, and the RNA are again precipitated (1 hour at −20° C.) and centrifugated. The pellets are washed with 5.4 ml of 70% ethanol. After a final centrifugation and removal of the supernatant, the pellets are air-dried, and re-suspended in sterile water containing DEPC (DEPC 1/1000 in water, then sterilization). Total RNA contents are measured on a UV spectrophotometer.\n(§3) 25 micrograms of total RNA have been placed into contact with oligo-dT (0.4 mM final of an equimolar composition of oligod(T) and of three oligosd(T) which have an A or a G or a C in 3′), and heated to 70° C. for 10 min, then incubated for 5 min on ice so as to allow oligo-dT hybridization on polyA RNA.\n(§4) The labeled cDNA are then hybridized with the filters (48 hours at 42° C.). […] Filters have then been washed with SSC 2× buffer without SDS for 30 min at 42° C., and exposed overnight in a phosphorimager cassette.\n(§5) For comparison purposes, Northern blots comprising 10 micrograms of total RNA have been incubated for hybridization with each cDNA probe separately. Quantifications are achieved by measuring band intensities per 18S quantity (as evaluated by ethidium bromide coloration)."}, "[4]": {"system": "CYP 3A5", "conditions": "hepatocytes", "procedure": "as §1, §2, §3, §4, §5"}, "[5]": {"system": "CYP 3A7", "conditions": "hepatocytes", "procedure": "as §1, §2, §3, §4, §5"}, "[6]": {"system": "CYP 1A2", "test": "membrane (slot blot) and Northern blot assay of CYP450 mRNA in treated human hepatocytes", "format": "cell-based", "conditions": "48 hours exposure, 3-MC 5 microM", "procedure": "(§6) Total RNA contents are measured on a UV spectrophotometer.\n(§7) The labeled cDNA thus produced are then purified."}, "[7]": {"system": "CYP 1A1", "test": "membrane (slot blot) and Northern blot assay of CYP450 mRNA in treated human hepatocytes", "format": "cell-based", "conditions": "48 hours exposure, 3-MC 5 microM", "procedure": "as §6, §7"}, "[8]": {"system": "CYP450 isoforms", "test": "specificity assays of the cDNA probes (hybridization on filters and Northern blot)", "format": "binding, human", "conditions": "32P-labeled probe, filters with plasmidic DNA / 3′-NTR, Northern blot of total RNA", "excerpt": "On nylon® membrane filters, the following DNA sequences were deposited:\neither the sequences obtained by amplification of 50 nanograms of plasmidic DNA as described in the above example 1, followed by purification and UV spectrophotometry dosage (Power Wave X2, Biotek instruments®, St Quentin en Yvelines, France),\nor plasmidic DNA (50 nanograms of linearized plasmid containing a probe inserted therein, or of empty pUC plasmid) obtained from the clones described in the above example 1 after linearization by Bam H1 (20 IU for 20 micrograms of plasmidic DNA, 1 hour at 37° C.).\nThe amplified sequences as well as the plasmidic ones were denatured by EDTA (final concentration of 10 mM, 10 min at 65° C.) and then by NaOH (final concentration of 0.1 M, 30 min at ambient temperature), and neutralized by SSC6× buffer, before being deposited onto a nylon® membrane (Biosupport®, Pall, Portsmouth, UK). Binding to the membrane was achieved by exposure to UV for 4 min and heating at 80° C. for 2 hours.\nThree types of specificity assays have been performed:\nintra-probe specificity: each cDNA probe (SEQ ID NO: 1-14) has been labeled with ^32P following Megaprime® DNA Labelling System (Amersham Pharmacia Biotech, Elancourt, France) and according to random primer polymerization. […]"}}, "note": "Read-outs that look alike come from different tables or passages of the source.", "data": [{"molecule": "CCC1(c2ccccc2)C(=O)NC(=O)NC1=O", "note": "[phenobarbital, Phenobarbital]", "values": [{"measurement": "variation of CYP 14 sub-family (hybridization signal)", "setting": "[1]", "value": "no variation"}, {"measurement": "CYP450 induced", "setting": "[2]", "value": "CYP 3A"}, {"measurement": "change in CYP 3A4 (hybridization signal of reverse-transcribed total RNA)", "setting": "[3]; hepatocytes", "value": "strong decrease"}, {"measurement": "variation of CYP 3A5 (hybridization signal)", "setting": "[4]", "value": "no variation"}, {"measurement": "variation of CYP 3A7 (hybridization signal)", "setting": "[5]", "value": "no variation"}]}, {"molecule": "Cc1ccc2cc3c(ccc4ccccc43)c3c2c1CC3", "note": "[3-methylcholanthrene]", "values": [{"measurement": "CYP450 induced", "setting": "[2]", "value": "CYP 1A"}, {"measurement": "change in CYP 1A2 (hybridization signal of reverse-transcribed total RNA)", "setting": "[6]", "value": "also but more weakly"}, {"measurement": "change in CYP 1A1 (hybridization signal of reverse-transcribed total RNA)", "setting": "[7]", "value": "increase"}, {"measurement": "change in CYP 3A4 (hybridization signal of reverse-transcribed total RNA)", "setting": "[3]; human hepatocytes, 48 hours exposure, 3-MC 5 microM, PB 1 microM, RIF 50 microM", "value": "decrease"}]}, {"molecule": "B1", "values": [{"measurement": "hybridization specificity of the probe (cross-hybridization with other CYP450 isoforms, empty plasmid, other RNA from human hepatocytes, 3′-NTR)", "setting": "[8]", "value": "may hybridize in the 3′-NTR region of CYP 2C9"}]}, {"molecule": "B2", "values": [{"measurement": "hybridization specificity of the probe (cross-hybridization with other CYP450 isoforms, empty plasmid, other RNA from human hepatocytes, 3′-NTR)", "setting": "[8]", "value": "only hybridizes to its CYP 2C9 target"}]}]}
